Target: T1, human GPR119 (hGPR119) (Homo sapiens, UniProt Q8TDV5)
T1 construct: expressed in transfected cells
T1 sequence (Q8TDV5 1-335): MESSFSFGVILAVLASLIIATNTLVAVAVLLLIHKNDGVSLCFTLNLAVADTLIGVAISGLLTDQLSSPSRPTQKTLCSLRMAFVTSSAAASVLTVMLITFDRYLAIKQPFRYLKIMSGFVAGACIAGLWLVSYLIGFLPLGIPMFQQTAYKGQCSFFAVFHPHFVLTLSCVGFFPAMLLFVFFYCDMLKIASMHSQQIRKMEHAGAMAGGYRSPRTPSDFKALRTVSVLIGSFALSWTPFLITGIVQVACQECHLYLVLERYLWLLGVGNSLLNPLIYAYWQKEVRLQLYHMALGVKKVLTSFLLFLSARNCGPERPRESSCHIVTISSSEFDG
Experiment: cAMP accumulation assay (Cisbio cAMP Gs dynamic HTRF kit) in CHO-K1 cells stably expressing human GPR119
Format: cell-based
Conditions: 4-parameter fit; for Emax: 1 h, % activity normalized to Max and Min controls; for EC50: 60 minutes at 37° C.
Outline: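 CHO-K1 cells stably expressing hGPR119, used as assay-ready frozen stocks at ~10,000 cells/well, exposed to compound dose-response in stimulation buffer with Tween 80 for 60 min at 37° C. cAMP read by HTRF (665/620 nm ratio), normalised to Max/Min controls; EC50 and Max activity from 4-parameter fit.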

| SMILES | Emax | EC50 |
| --- | --- | --- |
| O=C(Cc1ccc(OCCCC2CCN(c3ncc(Cl)cn3)CC2)cc1F)N1CCC2(CC1)CN(C[C@H](O)[C@@H](O)[C@H](O)[C@H](O)CO)C2 [Example 70, 2-(4-(3-(1-(5-chloropyrimidin-2-yl)piperidin-4-yl)propoxy)-2-fluorophenyl)-1-(2-((2S,3R,4R,5R)-2,3,4,5,6-pentahydroxyhexyl)-2,7-diazaspiro[3.5]nonan-7-yl)ethan-1-one] | 100 to 130% | 100 to 1000 nM |
| O=C(CCCCS(=O)(=O)O)N1CCCN(C(=O)Cc2ccc(OCCCC3CCN(c4ncc(Cl)cn4)CC3)cc2F)CC1 [Example 13, 5-(4-(2-(4-(3-(1-(5-chloropyrimidin-2-yl)piperidin-4-yl)propoxy)-2-fluorophenyl)acetyl)-1,4-diazepan-1-yl)-5-oxopentane-1-sulfonic acid] | 100 to 130% | 100 to 1000 nM |
| O=C(Cc1ccc(OCCCC2CCN(c3ncc(Cl)cn3)CC2)cc1F)N1CCOC2(CCN(C[C@H](O)[C@@H](O)[C@H](O)[C@H](O)CO)C2)C1 (stereo partly drawn) [Example 81, 2-(4-(3-(1-(5-chloropyrimidin-2-yl)piperidin-4-yl)propoxy)-2-fluorophenyl)-1-(2-((2S,3R,4R,5R)-2,3,4,5,6-pentahydroxyhexyl)-6-oxa-2,9-diazaspiro[4.5]decan-9-yl)ethan-1-one] | 100 to 130% | ≤ 100 nM |
| O=C(Cc1c(F)cc(OCCCC2CCN(C(=O)OC3(C(F)(F)F)COC3)CC2)cc1F)N1CCN(C[C@H](O)[C@@H](O)[C@H](O)[C@H](O)CO)CC1 [Example 106, 3-(trifluoromethyl)oxetan-3-yl 4-(3-(3,5-difluoro-4-(2-oxo-2-(4-((2S,3R,4R,5R)-2,3,4,5,6-pentahydroxyhexyl)piperazin-1-yl)ethyl)phenoxy)propyl)piperidine-1-carboxylate] | 100 to 130% | 100 to 1000 nM |
| CCc1cnc(N2CCC(CCCOc3cc(F)c(CC(=O)N4CCN(C[C@H](O)[C@@H](O)[C@H](O)[C@H](O)CO)CC4)c(F)c3)CC2)nc1 [Example 93, 2-(4-(3-(1-(5-ethylpyrimidin-2-yl)piperidin-4-yl)propoxy)-2,6-difluorophenyl)-1-(4-((2S,3R,4R,5R)-2,3,4,5,6-pentahydroxyhexyl)piperazin-1-yl)ethan-1-one] | 100 to 130% | ≤ 100 nM |
| O=C(Cc1ccc(OCCCC2CCN(c3ncc(Cl)cn3)CC2)cc1F)N1CC2(CCN2C[C@H](O)[C@@H](O)[C@H](O)[C@H](O)CO)C1 [Example 33, 2-(4-(3-(1-(5-chloropyrimidin-2-yl)piperidin-4-yl)propoxy)-2-fluorophenyl)-1-(1-((2S,3R,4R,5R)-2,3,4,5,6-pentahydroxyhexyl)-1,6-diazaspiro[3.3]heptan-6-yl)ethan-1-one] | 100 to 130% | ≤ 100 nM |
| O=C(Cc1ccc(OCCCC2CCN(c3ncc(Cl)cn3)CC2)cc1F)N1CCC2(CCN2C(=O)CCCCS(=O)(=O)O)C1 (centres unmarked) [Example 4, 5-(6-(2-(4-(3-(1-(5-chloropyrimidin-2-yl)piperidin-4-yl)propoxy)-2-fluorophenyl)acetyl)-1,6-diazaspiro[3.4]octan-1-yl)-5-oxopentane-1-sulfonic acid] | 100 to 130% | ≤ 100 nM |
| O=C(Cc1ccc(OCCCC2CCN(c3ncc(Cl)cn3)CC2)cc1F)N1C[C@@H]2CN(C[C@H](O)[C@@H](O)[C@H](O)[C@H](O)CO)C[C@@H]21 [Example 39, 2-(4-(3-(1-(5-chloropyrimidin-2-yl)piperidin-4-yl)propoxy)-2-fluorophenyl)-1-((1S,5R)-3-((2S,3R,4R,5R)-2,3,4,5,6-pentahydroxyhexyl)-3,6-diazabicyclo[3.2.0]heptan-6-yl)ethan-1-one] | 100 to 130% | ≤ 100 nM |
| O=C(Cc1ccc(OCCCC2CCN(c3ncc(Cl)cn3)CC2)cc1F)N1CCC12CN(C[C@H](O)[C@@H](O)[C@H](O)[C@H](O)CO)C2 [Example 41, 2-(4-(3-(1-(5-chloropyrimidin-2-yl)piperidin-4-yl)propoxy)-2-fluorophenyl)-1-(6-((2S,3R,4R,5R)-2,3,4,5,6-pentahydroxyhexyl)-1,6-diazaspiro[3.3]heptan-1-yl)ethan-1-one] | 100 to 130% | > 10000 nM |
| O=C(Cc1ccc(OCCCC2CCN(c3ncc(Cl)cn3)CC2)cc1F)N1C[C@H]2CN(C[C@H](O)[C@H](O)[C@H](O)CO)C[C@H]2C1 [Example 44, 2-(4-(3-(1-(5-chloropyrimidin-2-yl)piperidin-4-yl)propoxy)-2-fluorophenyl)-1-((3aR,6aS)-5-((2S,3S,4R)-2,3,4,5-tetrahydroxypentyl)hexahydropyrrolo[3,4-c]pyrrol-2(1H)-yl)ethan-1-one] | 100 to 130% | ≤ 100 nM |
| O=C(Cc1ccc(OCCCC2CCN(c3ncc(Cl)cn3)CC2)cc1F)N1CCC2(CN(C[C@H](O)[C@@H](O)[C@H](O)[C@H](O)CO)CCO2)C1 (stereo partly drawn) [Example 73, 2-(4-(3-(1-(5-chloropyrimidin-2-yl)piperidin-4-yl)propoxy)-2-fluorophenyl)-1-(9-((2S,3R,4R,5R)-2,3,4,5,6-pentahydroxyhexyl)-6-oxa-2,9-diazaspiro[4.5]decan-2-yl)ethan-1-one] | 100 to 130% | ≤ 100 nM |
| O=C(Cc1ccc(OCCCC2CCN(c3ncc(Cl)cn3)CC2)cc1F)N1C[C@H]2CN(C[C@H](O)[C@@H](O)[C@H](O)[C@H](O)CO)[C@H]2C1 [Example 37, 2-(4-(3-(1-(5-chloropyrimidin-2-yl)piperidin-4-yl)propoxy)-2-fluorophenyl)-1-((1R,5R)-6-((2S,3R,4R,5R)-2,3,4,5,6-pentahydroxyhexyl)-3,6-diazabicyclo[3.2.0]heptan-3-yl)ethan-1-one] | 100 to 130% | 100 to 1000 nM |
| O=C(Cc1ccc(OCCCC2CCN(c3ncc(Cl)cn3)CC2)cc1F)N1CCN(C[C@H](O)[C@@H](O)[C@H](O)[C@H](O)CO)CC1 [Example 27, 2-(4-(3-(1-(5-chloropyrimidin-2-yl)piperidin-4-yl)propoxy)-2-fluorophenyl)-1-(4-((2S,3R,4R,5R)-2,3,4,5,6-pentahydroxyhexyl)piperazin-1-yl)ethan-1-one] | 100 to 130% | ≤ 100 nM |
| O=C(Cc1ccc(OCCCC2CCN(c3ncc(Cl)cn3)CC2)cc1F)N1CC2(CCN(C[C@H](O)[C@H](O)[C@H](O)CO)C2)C1 [Example 66, 2-(4-(3-(1-(5-chloropyrimidin-2-yl)piperidin-4-yl)propoxy)-2-fluorophenyl)-1-(6-((2S,3S,4R)-2,3,4,5-tetrahydroxypentyl)-2,6-diazaspiro[3.4]octan-2-yl)ethan-1-one] | 100 to 130% | ≤ 100 nM |
| O=C(CCCCS(=O)(=O)O)N1C[C@H]2C[C@@H]1CN2C(=O)Cc1ccc(OCCCC2CCN(c3ncc(Cl)cn3)CC2)cc1F [Example 11, 5-((1R,4R)-5-(2-(4-(3-(1-(5-chloropyrimidin-2-yl)piperidin-4-yl)propoxy)-2-fluorophenyl)acetyl)-2,5-diazabicyclo[2.2.1]heptan-2-yl)-5-oxopentane-1-sulfonic acid] | 100 to 130% | ≤ 100 nM |
| O=C(Cc1ccc(OCCCC2CCN(c3ncc(Cl)cn3)CC2)cc1F)N1C[C@@H]2C[C@H]1CN2C[C@H](O)[C@H](O)[C@H](O)CO [Example 54, 2-(4-(3-(1-(5-chloropyrimidin-2-yl)piperidin-4-yl)propoxy)-2-fluorophenyl)-1-((1S,4S)-5-((2S,3S,4R)-2,3,4,5-tetrahydroxypentyl)-2,5-diazabicyclo[2.2.1]heptan-2-yl)ethan-1-one] | 100 to 130% | ≤ 100 nM |
